According to PubChem BioAssay (NCI):
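Growth conditions: 96-well plates. Treatment: test compound, 48 hours, 5 concentrations. Analysis: linear interpolation between bracketing concentrations; unreached endpoints set to highest concentration. Abbreviation: GI50, concentration required for 50% inhibition of growth. TGI marks complete inhibition of growth.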

Columns and labels:
Assay in all cases: growth of human tumour cells (NCI), 48 h
[1] = system: SNB-75 CNS
[2] = system: HT29 colon
[3] = system: SN12C renal
[4] = system: HCT-116 colon
[5] = system: OVCAR-4 ovarian
[6] = system: SNB-19 CNS
[7] = system: A498 renal
[8] = system: SK-MEL-2 melanoma
[9] = system: CCRF-CEM leukemia
[10] = system: MOLT-4 leukemia
[11] = system: SK-MEL-5 melanoma
[12] = system: HOP-62 NSCLC
[13] = system: COLO 205 colon
[14] = system: LOX IMVI melanoma
[15] = system: DU-145 prostate
[16] = system: OVCAR-5 ovarian
[17] = system: SK-MEL-28 melanoma
[18] = system: HL-60(TB) leukemia
[19] = system: A549 NSCLC
[20] = system: TK-10 renal
[21] = system: T-47D breast
[22] = system: RPMI-8226 leukemia
[23] = system: UACC-257 melanoma
[24] = system: HCC-2998 colon
[25] = system: NCI/ADR-RES ovarian
[26] = system: U251 CNS
[27] = system: OVCAR-8 ovarian
[28] = system: EKVX NSCLC
[29] = system: SR leukemia
[30] = system: NCI-H522 lung
[31] = system: MDA-MB-231 breast
[32] = system: 786-0 renal
[33] = system: MALME-3M melanoma
[34] = system: SF-268 CNS
[35] = system: CAKI-1 renal
[36] = system: UACC-62 melanoma
[37] = system: SK-OV-3 ovarian
[38] = system: IGROV1 ovarian
[39] = system: HCT-15 colon
[40] = system: PC-3 prostate
[41] = system: UO-31 renal
[42] = system: HS 578T breast
[43] = system: MDA-MB-435
[44] = system: SF-295 CNS
[45] = system: HOP-92 NSCLC
[46] = system: NCI-H23 lung
[47] = system: M14 melanoma
[48] = system: NCI-H460 lung
[49] = system: ACHN renal
[50] = system: MDA-N
[51] = system: NCI-H226 lung
[52] = system: K-562 leukemia
[53] = system: MCF7 breast
[54] = system: RXF 393 renal
[55] = system: KM12 colon
[56] = system: SF-539 CNS
[57] = system: SW-620 colon
[58] = system: BT-549 breast
[59] = system: OVCAR-3 ovarian

For `C[C@H]1C[C@H]2[C@@H]3CCC4=CC(=O)C=C[C@]4(C)C3=CC[C@]2(C)[C@@]1(O)C(=O)CO`, the TGI [1] was > 100 µM, the TGI [2] was > 100 µM and the TGI [3] was > 100 µM. For the same compound, the TGI [4] was > 100 µM, the TGI [5] was > 100 µM and the TGI [6] was > 100 µM. For the same compound, the TGI [7] was > 100 µM, the TGI [8] was > 100 µM and the TGI [9] was > 100 µM. For the same compound, the TGI [10] was > 100 µM, the TGI [11] was > 100 µM and the TGI [12] was > 100 µM. The TGI [13] was > 100 µM, the TGI [14] was > 100 µM and the TGI [15] was > 100 µM. The TGI [16] was > 100 µM, the TGI [17] was > 100 µM and the TGI [18] was > 100 µM. The TGI [19] was > 100 µM, the TGI [20] was > 100 µM and the TGI [21] was > 100 µM. The TGI [22] was > 100 µM, the TGI [23] was > 100 µM and the TGI [24] was > 100 µM. For the same compound, the TGI [25] was > 100 µM, the TGI [26] was > 100 µM and the TGI [27] was > 100 µM. The TGI [28] was > 100 µM, the TGI [29] was > 100 µM and the TGI [30] was > 100 µM. The TGI [31] was > 100 µM, the TGI [32] was > 100 µM and the TGI [33] was > 100 µM. For the same compound, the TGI [34] was > 100 µM, the TGI [35] was > 100 µM and the TGI [36] was > 100 µM. For the same compound, the TGI [37] was > 100 µM, the TGI [38] was > 100 µM and the TGI [39] was > 100 µM. The TGI [40] was > 100 µM, the TGI [41] was > 100 µM and the TGI [42] was > 100 µM. For the same compound, the TGI [43] was > 100 µM, the TGI [44] was > 100 µM and the TGI [45] was > 100 µM. The TGI [46] was > 100 µM, the TGI [47] was > 100 µM and the TGI [48] was > 100 µM. The TGI [49] was > 100 µM, the TGI [50] was > 100 µM and the TGI [51] was > 100 µM. The TGI [52] was > 100 µM, the TGI [53] was > 100 µM and the TGI [54] was > 100 µM. The TGI [55] was > 100 µM.
`O=C1/C(=C/c2ccccc2[N+](=O)[O-])COc2ccc(O)cc21` gave a GI50 [1] of 2.76 µM, a TGI [1] of 19.6 µM and a GI50 [2] of 0.397 µM. It also gave a TGI [2] of 3.07 µM, a GI50 [56] of 1.71 µM and a TGI [56] of 4.27 µM. It also gave a GI50 [3] of 1.6 µM, a TGI [3] of 5.55 µM and a GI50 [4] of 0.352 µM. The TGI [4] was 1.57 µM, the GI50 [5] was 1.9 µM and the TGI [5] was 8.63 µM. It also gave a GI50 [6] of 4.15 µM, a TGI [6] of 16.6 µM and a GI50 [7] of 1.65 µM. It also gave a TGI [7] of 7.24 µM, a GI50 [8] of 2.98 µM and a TGI [8] of 11 µM. It also gave a GI50 [9] of 0.326 µM, a TGI [9] of 2.52 µM and a GI50 [10] of 2.27 µM. It also gave a TGI [10] of 8.23 µM, a GI50 [11] of 1.76 µM and a TGI [11] of 4.07 µM. The GI50 [12] was 5.21 µM, the TGI [12] was 19.3 µM and the GI50 [13] was 1.14 µM. The TGI [13] was 2.89 µM, the GI50 [14] was 1.05 µM and the TGI [14] was 2.27 µM. The GI50 [15] was 1.72 µM, the TGI [15] was 4.29 µM and the GI50 [16] was 1.73 µM. For the same compound, the TGI [16] was 3.64 µM, the GI50 [57] was 0.448 µM and the TGI [57] was 1.81 µM. The GI50 [17] was 1.55 µM, the TGI [17] was 3.14 µM and the GI50 [18] was 1.76 µM. For the same compound, the TGI [18] was 5.68 µM, the GI50 [19] was 4.49 µM and the TGI [19] was 19.4 µM. The GI50 [20] was 3.44 µM, the TGI [20] was 13.9 µM and the GI50 [21] was 2.36 µM. It also gave a TGI [21] of 17.6 µM, a GI50 [22] of 0.612 µM and a TGI [22] of 5 µM. It also gave a GI50 [23] of 2.16 µM, a TGI [23] of 7.13 µM and a GI50 [24] of 1.51 µM. It also gave a TGI [24] of 2.94 µM, a GI50 [25] of 1.99 µM and a TGI [25] of 8.09 µM. For the same compound, the GI50 [26] was 2.41 µM, the TGI [26] was 8.74 µM and the GI50 [27] was 2.3 µM. For the same compound, the TGI [27] was 47.8 µM, the GI50 [28] was 3.22 µM and the TGI [28] was 14.5 µM. It also gave a GI50 [58] of 2.3 µM, a TGI [58] of 5.23 µM and a GI50 [29] of 0.366 µM. For the same compound, the TGI [29] was > 100 µM, the GI50 [30] was 0.684 µM and the TGI [30] was 3.65 µM. For the same compound, the GI50 [31] was 1.77 µM, the TGI [31] was 3.69 µM and the GI50 [32] was 1.72 µM. It also gave a TGI [32] of 10 µM, a GI50 [33] of 1.65 µM and a TGI [33] of 4.62 µM. For the same compound, the GI50 [34] was 2.4 µM, the TGI [34] was 7.97 µM and the GI50 [35] was 1.03 µM. For the same compound, the TGI [35] was 2.91 µM, the GI50 [36] was 1.52 µM and the TGI [36] was 3.08 µM. The GI50 [37] was 5.25 µM, the TGI [37] was 17.6 µM and the GI50 [38] was 0.529 µM. It also gave a TGI [38] of 2.08 µM, a GI50 [39] of 0.417 µM and a TGI [39] of 2.06 µM. The GI50 [40] was 2.01 µM, the TGI [40] was 10.8 µM and the GI50 [41] was 1.02 µM. For the same compound, the TGI [41] was 2.63 µM, the GI50 [42] was 2.39 µM and the TGI [42] was 41.6 µM. For the same compound, the GI50 [43] was 2.18 µM, the TGI [43] was 5.96 µM and the GI50 [44] was 7.13 µM. It also gave a TGI [44] of 25.6 µM, a GI50 [45] of 2.75 µM and a TGI [45] of 12.5 µM. It also gave a GI50 [59] of 0.523 µM, a TGI [59] of 1.76 µM and a GI50 [46] of 1.59 µM. It also gave a TGI [46] of 4.41 µM, a GI50 [47] of 1.9 µM and a TGI [47] of 4.85 µM. For the same compound, the GI50 [48] was 2.1 µM, the TGI [48] was 5.04 µM and the GI50 [49] was 0.74 µM. The TGI [49] was 2.13 µM, the GI50 [51] was 2.4 µM and the TGI [51] was 10.9 µM. For the same compound, the GI50 [52] was 0.528 µM, the TGI [52] was > 100 µM and the GI50 [53] was 0.697 µM. The TGI [53] was 8.75 µM, the GI50 [54] was 1.23 µM and the TGI [54] was 3.02 µM. The GI50 [55] was 1.85 µM and the TGI [55] was 4.31 µM.
